Here are results for seven compounds from patent US20230184756A1, “BIOMATERIALS” (INSTITUTO DE MEDICINA MOLECULAR JOÃO LOBO ANTUNES, priority 2020, published 2023).

The target in one data set is streptavidin (Streptomyces avidinii, UniProt P22629). Nature of the data set: Binding to free streptavidin by intrinsic tryptophan fluorescence. As to conditions: 0.8 μM streptavidin. An excerpt:
In terms of secondary structure, evaluated via Fourier Transform Infra Red (FITR) spectroscopy (FIG. 5b), the observations echo the results obtained with (non-biotinylated) STVIIE fibrils (confront with FIG. 3f). Addition, via a PEG9 linker, of a biotin moiety to STVIIE N-terminus results in biotin functionalized STVIIE amyloid fibrils. These fibrils show both the […] and the antiparallel cross β-sheet peaks, being quite similar to the spectra obtained with free (non-biotinylated) STVIIE. Then, the activity of the bioactive molecule (biotin) attached to the fibrils was tested, namely the ability to bind its target bridge element molecule (streptavidin), when free in solution (FIG. 5c-g). […] Briefly, the fluorescence intensity spectra of 0.8 μM streptavidin in solution, treated with buffer (FIG. 5c, leftmost graph), free biotin (FIG. 5c, second graph from the left), non-biotinylated free amyloid peptide (FIG. 5c, third from the left) or biotinylated amyloidogenic peptide fibrils (FIG. 5c, rightmost graph) were compared. A drop on the fluorescence signal (decreased quantum yield) accompanied by peak shifting towards the left (blue shift) indicates streptavidin binding to biotin (FIG. 5c). […] The addition of biotinylated peptide to streptavidin produces a similar blue shift of the fluorescence emission maximum (from 340 to 330 nm), as observed when free biotin is added. […]

Data set [1] is described as follows: Atomic force microscopy of amyloid fibril formation, morphology and dimensions. The data set is classed as physicochemical. As to conditions: AFM, 2 weeks incubation at physiologic pH. From the text: According to experimental procedures at the host lab^57-59, the samples were placed in poly-1-lysine slides and dried using a vacuum chamber. When fully dried, the samples were rinsed with ultra-pure water and dried with a gentle N2 air flux. A NanoWizard II atomic force microscope (JPK Instruments, Berlin, Germany), mounted on the top of an Axiovert 200 inverted optical microscope (Zeiss, Jena, Germany), was used for the microscopic experiments. The AFM head is equipped with a 5.85-μm z-range linearized piezoelectric scanner and an infrared laser. For the acquisition of the different AFM images, it was used a ACL-50 tip (Applied NanoStructures, Inc., California, USA) with a spring constant between 20-95 N/m and a frequency between 145-230 kHz. Amyloid fibrils were acquired in intermittent (air) mode with a setpoint of between 0.4-0.5 V, a line rate of 0.7-0.8 Hz, an IGain of 20-50 Hz and a PGain of 0.001-0.004. The images acquired were treated afterwards with the JPKSPM Data Processing (JPK Instruments, Berlin, Germany).
The most promising amyloidogenic peptide is typically selected. For this purpose, atomic force microscopy (AFM) was employed. AFM is a technique that can be very useful in the acquisition of surface images with high resolution and sensibility, being therefore suitable for such studies of amyloid fibrils and employed in this analysis. […] Regarding GNNQQNY (FIG. 2, first row from the top), at the start of incubation there are no visible structures. At the end of the incubation period tested (2 weeks), heterogeneous structures are visible. […] In contrast, QVQIIE, ISFLIF and STVIIE peptides show amyloid morphologies at the end of the incubation period tested (FIG. 2). […] This is consistent with the β-sheet content of QVQIIE and ISFLIF at the end of the incubation period, measured via Fourier transform infrared spectroscopy (FIG. 12) and binding profile to Congo Red (FIG. 13). […] As for STVIIE, it forms clear fibril structures in the conditions tested. […]

Data set [2] can be described thus: Sample preparation: highest concentration at which the peptide fully dissolves. Format: physicochemical. As to conditions: for highest final concentration that they were able to be fully dissolved: 50 mM Tris-HCl pH 7.5, 5 mM EDTA buffer, room temperature. The protocol: STVIIE, GNNQQNY, QVQIIE and ISFLIF were prepared at the highest final concentration that they were able to be fully dissolved, respectively 1 mg/mL (STVIIE and GNNQQNY), 0.55 mg/mL (QVQIIE) and 0.1 mg/mL (ISFLIF). For all peptide samples the final incubation buffer was 50 mM Tris-HCl pH 7.5, 5 mM EDTA buffer. Briefly, after weighing the peptide, half of the final volume of H2O ultrapure was added. A short vortex of approximately 1500 rpm and 30 seconds and an ultrasound bath of 280 seconds in water/ice were performed two times. The other half of the final volume was then added, containing 100 mM Tris-HCl pH 7.5, 10 mM EDTA buffer was added, with the peptide samples being therefore in the final incubation buffer. Before incubation, two other cycles of vortex and ultrasound bath were performed. The final peptide solution sample was incubated at room temperature.

Data set [3] relates to Human H4 neuroglioma cells. Briefly: LDH release cytotoxicity assay.
The nature of data set [4]: FTIR spectroscopy of secondary structure. Format: physicochemical. As to conditions: followed for 6 hours. The protocol: Following previous approaches^11,54, peptide samples were applied to the FTIR sample holder at 298.15 K. InfraRed spectra were recorded on a Bruker Tensor 27 infrared spectrophotometer (Bruker Optik GmbH, Ettlingen, Germany) equipped with a Bio-ATR II accessory. The spectrophotometer was continuously purged with dried air. Spectra were recorded at a spectral resolution of 4 cm^−1 and 120 accumulations were performed per measurement. The final spectra were corrected to the baseline (the final incubation buffer) and rescaled in the amide I area (˜1600 to ˜1700 cm^−1).
The formation of aggregates by STVIIE quickly leads the larger elements to deposit from solution. This hinders circular dichroism studies of STVIIE secondary structure. For this reason Fourier transform infra-red (FTIR) spectroscopy was used instead (FIG. 3f-g). The changes in secondary structure content were followed for 6 hours (FIG. 3f). Then, after 6 hours, when amyloid structures are readily visible (FIG. 3a), the experiment was terminated. This time frame is also chosen given that for nanotechnology applications short incubation periods can be necessary and/or preferable. The peptides spectra are consistent with antiparallel β-sheet/aggregated strands (1675-1695 cm^−1) and β-sheet (1625-1640 cm^−1) secondary structure being present (FIG. 3f). […]

“Also recorded” adds a separate entry of the source. Peptide text beside a SMILES is read from it.

Turning to `O=C(O)CCCC[C@@H]1SC[C@@H]2NC(=O)N[C@@H]21` [biotin, 5-[(3aS,4S,6aR)-2-oxohexahydro-1H-thieno[3,4-d]imidazol-4-yl]pentanoic acid], the “concentration at which the peak shift achieves saturation” value on streptavidin was roughly 4 µM. Besides, the “blue shift of streptavidin fluorescence emission peak maximum” value at streptavidin (peptide and/or biotin 0 to 13.6 μM) worked out at 10 nm.
For GNNQQNY [short amyloidogenic peptide], the “morphology at end of incubation” value in data set [1] was “not consistent with the well-defined amyloid fibril morphology”. Moreover, the “highest final concentration that they were able to be fully dissolved” value in data set [2] is 1 mg/mL.
As for “Aβ(1-42): Amyloid β peptide (involved in Alzheimer's disease), positive control of fibrillization [reference compound]”, the “morphology at end of incubation” value in data set [1] is “form typical amyloid fibrils”.
As to `CC[C@H](C)[C@H](N)C(=O)N[C@@H](CO)C(=O)N[C@@H](Cc1ccccc1)C(=O)N[C@@H](CC(C)C)C(=O)N[C@H](C(=O)N[C@@H](Cc1ccccc1)C(=O)O)[C@@H](C)CC` [ISFLIF] (H-ISFLIF-OH; N-terminus and C-terminus assumed), the “solubility in physiological conditions” value in data set [2] (physiological conditions) is “difficult to dissolve at high concentrations”.
In the case of `CC[C@H](C)[C@H](NC(=O)[C@@H](NC(=O)[C@@H](NC(=O)[C@@H](N)CO)[C@@H](C)O)C(C)C)C(=O)N[C@H](C(=O)N[C@@H](CCC(=O)O)C(=O)O)[C@@H](C)CC` [STVIIE] (H-STVIIE-OH; N-terminus and C-terminus assumed), the “toxicity to cells (LDH release)” value in data set [3] (fibrils at 0.2, 2 and 20 μM, 6 and 24 hours) was “not toxic; also recorded: not cytotoxic”. For the same compound, the “time for relative ratio of β-sheet secondary structure to stabilize” value in data set [4] is “less than 3 hours”.
Turning to QVQIIE, the “morphology at end of incubation” value in data set [1] was “amyloid-like gel structure”. In data set [2], the “highest final concentration that they were able to be fully dissolved” value came to 0.55 mg/mL.
Take Triton [reference compound]: the cell death in data set [3] (0.2, 2.0 and 20 μM, 6 to 24 hours, buffer control 10-15%) is recorded as 100%.
